Reference: US11254663B2 (BRISTOL-MYERS SQUIBB COMPANY, priority 2019, dated 2022)

target: FXR (Homo sapiens (Human), UniProt Q96RI1); assay: transient human FXR/Gal4-luciferase reporter assay; type: cell-based; conditions: not given
Summary of the method: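 HEK293 cells stably carrying a 5×Gal4 response element–firefly luciferase reporter were transiently transfected overnight with a Gal4 DBD–human FXR LBD fusion plasmid. Compound was added in DMSO and cells were incubated overnight at 37 °C, 5% CO2. Activity was read as Steady-Glo luminescence.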

Sequence of FXR (Q96RI1 262-486): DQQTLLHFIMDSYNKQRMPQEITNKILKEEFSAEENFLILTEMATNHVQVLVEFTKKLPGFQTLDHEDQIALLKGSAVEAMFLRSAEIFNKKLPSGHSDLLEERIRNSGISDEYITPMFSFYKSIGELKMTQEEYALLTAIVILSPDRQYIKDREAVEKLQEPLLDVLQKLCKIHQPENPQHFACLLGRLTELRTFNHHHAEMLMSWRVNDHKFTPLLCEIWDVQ

SMILES | EC50
CS(=O)(=O)Nc1ccc(-c2cccc(N(CC34CCC(c5ccc(C(F)(F)F)cn5)(CC3)CC4)C(=O)C34CC(F)(C3)C4)c2)cc1 [Example 488, 3-fluoro-N-(4′-(methylsulfonamido)-[1,1′-biphenyl]-3-yl)-N-((4-(5-(trifluoromethyl)pyridin-2-yl)bicyclo[2.2.2]octan-1-yl)methyl)bicyclo[1.1.1]pentane-1-carboxamide] | 0.876 µM

same assay, conditions: Gal4-hFXR fusion construct, HEK293 reporter cells; response relative to 8 μM GW-4064

SMILES | EC50
O=C(N(CC12CCC(c3nc(C4CC4)no3)(CC1)CC2)c1cccc(-c2cc(C(F)(F)F)c3ncnn3c2)c1)C12CC(F)(C1)C2 [Example 263, N-((4-(3-cyclopropyl-1,2,4-oxadiazol-5-yl)bicyclo[2.2.2]octan-1-yl)methyl)-3-fluoro-N-(3-(8-(trifluoromethyl)-[1,2,4]triazolo[1,5-a]pyridin-6-yl)phenyl)bicyclo[1.1.1]pentane-1-carboxamide] | 2.71 µM
CC(C)(C)c1nc(C23CCC(CN(C(=O)C4CC(O)(C(F)(F)F)C4)c4cccc(-c5ccc(NS(C)(=O)=O)cc5)c4)(CC2)CC3)no1 [Example 513, (1S,3S)—N-((4-(5-(tert-butyl)-1,2,4-oxadiazol-3-yl)bicyclo[2.2.2]octan-1-yl)methyl)-3-hydroxy-N-(4′-(methylsulfonamido)-[1,1′-biphenyl]-3-yl)-3-(trifluoromethyl)cyclobutane-1-carboxamide] | 0.922 µM
O=C(N(CC12CCC(c3nc(C4CC4)no3)(CC1)CC2)c1cccc(-c2ccc(NS(=O)(=O)C(F)(F)F)cc2)c1)C12CC(F)(C1)C2 [Example 267, N-((4-(3-cyclopropyl-1,2,4-oxadiazol-5-yl)bicyclo[2.2.2]octan-1-yl)methyl)-3-fluoro-N-(4′-((trifluoromethyl)sulfonamido)-[1,1′-biphenyl]-3-yl)bicyclo[1.1.1]pentane-1-carboxamide] | 0.046 µM
CCOc1ccc(-c2cncc(N(CC34CCC(c5nc(C6CC6)no5)(CC3)CC4)C(=O)C34CC(F)(C3)C4)c2)cn1 [Example 426, N-((4-(3-cyclopropyl-1,2,4-oxadiazol-5-yl)bicyclo[2.2.2]octan-1-yl)methyl)-N-(6′-ethoxy-[3,3′-bipyridin]-5-yl)-3-fluorobicyclo[1.1.1]pentane-1-carboxamide] | 0.417 µM
CC(C)(O)c1ccc(-c2cccc(N(CC34CCC(c5noc(C(C)(C)F)n5)(CC3)CC4)C(=O)N3CC4(C3)CS(=O)(=O)C4)c2)cc1 [Example 641, N-((4-(5-(2-fluoropropan-2-yl)-1,2,4-oxadiazol-3-yl)bicyclo[2.2.2]octan-1-yl)methyl)-N-(4′-(2-hydroxypropan-2-yl)-[1,1′-biphenyl]-3-yl)-2-thia-6-azaspiro[3.3]heptane-6-carboxamide 2,2-dioxide] | 1.3 µM
CCOc1ncc(-c2cccc(N(CC34CCC(c5ccc(C6(C#N)CC6)cc5)(CC3)OC4)C(=O)C34CC(F)(C3)C4)c2)cn1 [Example 352, N-((1-(4-(1-cyanocyclopropyl)phenyl)-2-oxabicyclo[2.2.2]octan-4-yl)methyl)-N-(3-(2-ethoxypyrimidin-5-yl)phenyl)-3-fluorobicyclo[1.1.1]pentane-1-carboxamide] | 0.167 µM
CCOc1ncc(-c2cccc(N(CC34CCC(c5nc(C(C)(C)C)no5)(CC3)CO4)C(=O)C34CC(F)(C3)C4)c2)cn1 [Example 553, N-((4-(3-(tert-butyl)-1,2,4-oxadiazol-5-yl)-2-oxabicyclo[2.2.2]octan-1-yl)methyl)-N-(3-(2-ethoxypyrimidin-5-yl)phenyl)-3-fluorobicyclo[1.1.1]pentane-1-carboxamide] | 1.59 µM
N#Cc1cc2sccc2nc1-c1cccc(N(CC23CCC(c4nc(C5CC5)no4)(CC2)CC3)C(=O)C23CC(F)(C2)C3)c1 [Example 316, N-(3-(6-cyanothieno[3,2-b]pyridin-5-yl)phenyl)-N-((4-(3-cyclopropyl-1,2,4-oxadiazol-5-yl)bicyclo[2.2.2]octan-1-yl)methyl)-3-fluorobicyclo[1.1.1]pentane-1-carboxamide] | 0.138 µM
